Here are results for 13 compounds from patent US20250051367A1, “HETEROCYCLE-CONTAINING LONP1 INHIBITOR COMPOUNDS, USES AND METHODS” (Pretzel Therapeutics, Inc., priority 2021, published 2025).

Some results are limits rather than exact numbers.

Chain of LONP1 (NM_004793.4) (P36776 68-959): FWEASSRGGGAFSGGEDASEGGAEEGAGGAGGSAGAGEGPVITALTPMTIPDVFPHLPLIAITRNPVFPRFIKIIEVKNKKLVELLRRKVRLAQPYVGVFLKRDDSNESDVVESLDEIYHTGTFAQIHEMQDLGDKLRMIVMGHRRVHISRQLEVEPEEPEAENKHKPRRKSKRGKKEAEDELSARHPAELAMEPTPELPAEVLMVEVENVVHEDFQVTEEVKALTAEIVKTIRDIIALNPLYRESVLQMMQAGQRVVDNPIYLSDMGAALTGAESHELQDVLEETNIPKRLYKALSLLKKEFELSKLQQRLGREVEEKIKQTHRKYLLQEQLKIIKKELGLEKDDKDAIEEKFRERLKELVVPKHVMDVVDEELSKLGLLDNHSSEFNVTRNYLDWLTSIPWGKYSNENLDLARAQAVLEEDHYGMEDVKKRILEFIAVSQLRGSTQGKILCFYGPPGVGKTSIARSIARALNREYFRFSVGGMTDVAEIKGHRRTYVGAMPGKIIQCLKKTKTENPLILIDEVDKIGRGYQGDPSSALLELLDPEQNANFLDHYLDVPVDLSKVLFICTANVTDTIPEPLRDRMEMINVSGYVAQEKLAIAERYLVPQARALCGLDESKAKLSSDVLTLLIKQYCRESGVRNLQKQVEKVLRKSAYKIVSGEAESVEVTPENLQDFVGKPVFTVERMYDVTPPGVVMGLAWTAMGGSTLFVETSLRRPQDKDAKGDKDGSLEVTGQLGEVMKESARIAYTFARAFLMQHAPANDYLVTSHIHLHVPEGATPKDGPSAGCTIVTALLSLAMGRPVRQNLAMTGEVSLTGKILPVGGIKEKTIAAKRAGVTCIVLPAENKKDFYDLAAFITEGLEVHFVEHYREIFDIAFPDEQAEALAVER

The assay has as its target LONP1 (NM_004793.4) (Homo sapiens (Human), UniProt P36776). Kind of assay: LONP1 FRET-based protease activity assay (fluorogenic peptide substrate). The format is biochemical. The following applies: substrate 3 μM, LONP1 15 nM, 1 hour at 37° C.; average of a minimum of two repeats. The method, then: The inhibitory activity of the compounds of the present invention against LONP1, 20S proteasome and other proteases are determined by assays known to persons of ordinary skill in the art (see, e.g., Fishovitz, J. et al. “Active-Site-Directed Chemical Tools for Profiling Mitochondrial Lon Protease” ACS Chem. Biol. 6, 781-788 (2011)).
In this Example, LONP1 (NM_004793.4) activity was measured by a FRET-based assay for protease activity using a fluorogenic peptide DabcylYRGIT(2Abu)SGRQK(5-FAM) (Cambridge Research Biochemicals) as substrate. LONP1 activity is followed by an increase in fluorescence signal due to the degradation of the peptide. Inhibition of LONP1 protease activity by an inhibitor compound of the disclosure elicits a decrease in the fluorescent signal.
The assay is performed in a 384-well plate (Greiner, cat. #781076) using the following reagents and conditions: substrate (3 μM) was incubated for 1 hour at 37° C. in the presence of LONP1 (15 nM as monomer), 25 mM Tris pH 8.0, 10 mM MgCl2, 0.03 mg/mL BSA, 0.5 mM DTT, 0.0003% Tween-20, 10 mM NaCl, 0.06 mM ATP and 0.5 mM EGTA in a 15 μL final volume. The LONP1-containing mix (10 μL) was incubated with the test compound for 15 min at 37° C. before adding the peptide-containing mix (5 μL). Solutions were dispensed using a small cassette-Multidrop Combi (Thermo Scientific). Fluorescence was measured using a PheraStar plate reader (BMG Labtech) FI-FRET EX 485 nm Em 520 nm.
Each value is based on an average of a minimum of two repeats.
Turning to `Cn1ccc(C[C@@H](NC(=O)c2cnccn2)C(=O)N[C@H](CCCc2ccccc2)B(O)O)n1` (stereo in doubt) [Compound 4, ((S)-1-((R)-3-(1-methyl-1H-pyrazol-3-yl)-2-(pyrazine-2-carboxamido)propanamido)-4-phenylbutyl)boronic acid], the IC50 (commonly the concentration needed to halve the response being measured) is below 50 nM.
Take `O=C(N[C@H](Cc1nccs1)C(=O)N[C@@H](CCCc1ccccc1)B(O)O)c1cnccn1` [Compound 1, ((R)-4-phenyl-1-((R)-2-(pyrazine-2-carboxamido)-3-(thiazol-2-yl)propanamido)butyl)boronic acid]: the half-inhibitory concentration (IC50) was below 50 nM.
In the case of `O=C(N[C@@H](Cc1nccs1)C(=O)N[C@@H](CCCc1ccccc1)B(O)O)c1cnccn1` [Compound 2, ((R)-4-phenyl-1-((S)-2-(pyrazine-2-carboxamido)-3-(thiazol-2-yl)propanamido)butyl)boronic acid], the IC50 was below 50 nM.
`Cn1ccc(C[C@@H](NC(=O)c2cnccn2)C(=O)N[C@@H](CCCc2ccccc2)B(O)O)n1` [Compound 3, ((R)-1-((R)-3-(1-methyl-1H-pyrazol-3-yl)-2-(pyrazine-2-carboxamido)propanamido)-4-phenylbutyl)boronic acid] displayed an IC50 below 50 nM.
For `O=C(N[C@H](Cc1cnco1)C(=O)N[C@@H](CCCc1ccccc1)B(O)O)c1cnccn1` [Compound 5, ((R)-1-((R)-3-(oxazol-5-yl)-2-(pyrazine-2-carboxamido)propanamido)-4-phenylbutyl)boronic acid], the half-maximal inhibitory concentration (IC50) is below 50 nM.
Take `O=C(N[C@@H](Cc1cnco1)C(=O)N[C@@H](CCCc1ccccc1)B(O)O)c1cnccn1` [Compound 6]: the IC50 is below 50 nM.
Turning to `O=C(N[C@H](Cc1c[nH]c2ccccc12)C(=O)N[C@@H](CCCc1ccccc1)B(O)O)c1cnccn1` [Compound 7, ((R)-1-((R)-3-(1H-indol-3-yl)-2-(pyrazine-2-carboxamido)propanamido)-4-phenylbutyl)boronic acid], the half-inhibitory concentration (IC50) was 50 to 500 nM.
The same measure for `CC(C)C[C@H](NC(=O)[C@@H](Cc1nccn1C)NC(=O)c1cnccn1)B(O)O` [Compound 8, ((R)-3-methyl-1-((R)-3-(1-methyl-1H-imidazol-2-yl)-2-(pyrazine-2-carboxamido)propanamido)butyl)boronic acid]: 50 to 500 nM.
In the case of `CC(C)C[C@H](NC(=O)[C@H](Cc1nccn1C)NC(=O)c1cnccn1)B(O)O` [Compound 9, ((R)-3-methyl-1-((S)-3-(1-methyl-1H-imidazol-2-yl)-2-(pyrazine-2-carboxamido)propanamido)butyl)boronic acid] it was 50 to 500 nM; in that of `O=C(N[C@H](Cc1ncco1)C(=O)N[C@@H](CCCc1ccccc1)B(O)O)c1cnccn1` [Compound 10, ((R)-1-((R)-3-(oxazol-2-yl)-2-(pyrazine-2-carboxamido)propanamido)-4-phenylbutyl)boronic acid], below 50 nM; in that of `O=C(N[C@@H](Cc1ncco1)C(=O)N[C@@H](CCCc1ccccc1)B(O)O)c1cnccn1` [Compound 11, ((R)-1-((S)-3-(oxazol-2-yl)-2-(pyrazine-2-carboxamido)propanamido)-4-phenylbutyl)boronic acid], below 50 nM.
For the compound `Cn1ccnc1C[C@@H](NC(=O)c1cnccn1)C(=O)N[C@@H](CCCc1ccccc1)B(O)O` [Compound 12, ((R)-1-((R)-3-(1-methyl-1H-Imidazol-2-yl)-2-(pyrazine-2-carboxamido)propanamido)-4-phenylbutyl)boronic acid], the IC50 is below 50 nM.
The compound `Cn1ccnc1C[C@H](NC(=O)c1cnccn1)C(=O)N[C@@H](CCCc1ccccc1)B(O)O` [Compound 13, ((R)-1-((S)-3-(1-methyl-1H-imidazol-2-yl)-2-(pyrazine-2-carboxamido)propanamido)-4-phenylbutyl)boronic acid] displayed a 50% inhibitory concentration (IC50) of 50 to 500 nM.
